Laboratory results published in patent publication US20080076183A1, “Polysaccharide-peptide conjugates for use as thrombin substrates” (Dade Behring Marburg GmbH, priority 2006, published 2008).
Non-standard residues stand in square brackets, D forms with d. Residues, ends and D or L forms follow the SMILES beside them. *: point of attachment. pNA = O=[N+]([O-])c1ccc(N*)cc1; βAla = NCCC(=O)O

Assays:
[1] = biological target: T1, thrombin (Homo sapiens, UniProt P00734); experiment: Kinetic properties of thrombin substrates (Km, Vmax, Kcat, Kcat/Km)
[2] = biological target: T1, thrombin; experiment: Thrombin generation test / determination of the endogenous thrombin potential in defibrinated platelet-poor plasma; type: biochemical; details: for course of substrate conversion curve after termination of thrombin formation and inhibition: extinction at 405 nm; for reaction kinetics / substrate consumption in a thrombin generation test: compared with H-β-Ala-Gly-Arg-pNA and dextran-β-Ala-Gly-Arg-pNA
Method: The thrombin generation was started by addition of 30 μl of Innovin® (reagent comprising recombinant human tissue factor and a mixture of synthetic phospholipids; Dade Behring Marburg GmbH, Germany) and 15 μl of CaCl2 [250 mM]. Measurement was started simultaneously. The change in extinction was monitored for at least 20 minutes in a Behring coagulation system BCS® system (Dade Behring Marburg GmbH, Marburg, Germany) at a wavelength of λ=405 nm (see FIG. 2).
For comparison purposes, the determination of the endogenous thrombin potential was carried out in parallel using the uncoupled substrate H-β-Ala-Gly-Arg-pNA. The substrate solution used for this contained 1 mM H-β-Ala-Gly-Arg-pNA (see FIG. 1).

| Molecule | course of substrate conversion curve after termination of thrombin formation and inhibition ([2]; plasma sample) | reaction kinetics / substrate consumption in a thrombin generation test [2] | further results |
| --- | --- | --- | --- |
| N=C(N)NCCC[C@H](NC(=O)CNC(=O)CCN)C(=O)Nc1ccc([N+](=O)[O-])cc1 [H-β-Ala-Gly-Arg-pNA 2AcOH] (H-[βAla]-Gly-Arg-pNA) | changes to a uniform, steady and linear increase, instead of reaching a plateau phase | – | Km ([1]; Michaelis constant, substrate affinity to thrombin): 2200 µM; Vmax ([1]; maximum reaction rate): 16 U; Kcat ([1]; turnover number): 17.4 s⁻¹; cleavage by α2-macroglobulin-bound thrombin ([2]; plasma sample): cleavage of the small molecular weight peptide substrate by α2-macroglobulin-bound thrombin |
| Dextran-D-CHG-Ala-Arg-pNA | – | substrate consumption rapidly occurs | – |
| Dextran-D-CHG-Gly-Arg-pNA | – | substrate consumption rapidly occurs | – |
| Dextran-β-Ala-Gly-Arg-pNA | reaches a plateau phase | – | – |
